These results are taken from patent US7915402B2, “Antioxidant inflammation modulators: oleanolic acid derivatives with saturation in the C-ring” (Reata Pharmaceuticals, Inc., priority 2008, dated 2011).

The structures appear in SMILES notation.

For one data set, the system named is mice. Kind of data set: 9-day toxicity study in mice. Format: in vivo. As to conditions: sesame oil, p.o. daily for 9 days. How it is done:
In a second experiment, six additional compound differing only in the saturation or non-saturation of the C ring were tested for toxicity in mice by daily oral administration for 9 days, using sesame oil as the vehicle.

Data set [1] concerns IFNγ-induced NO production in RAW264.7 macrophages. Kind of data set: Suppression of IFNγ-induced NO production (Griess reagent). Format: cell-based, mouse. The following applies: RAW264.7, 20 ng/ml IFNγ 24 h, 2 h pre-treatment. As for the experimental part: (§1) FIGS. 1-8 and 32-34. Inhibition of NO Production. RAW264.7 macrophages were pre-treated with DMSO or drugs at various concentrations (nM) for 2 hours, then treated with 20 ng/ml IFNγ for 24 hours. NO concentration in media was determined using a Griess reagent system; cell viability was determined using WST-1 reagent.
(§2) Nitric Oxide production and cell viability. RAW264.7 macrophages were pre-treated with DMSO or drugs for 2 hours, then treated with recombinant mouse IFNγ (Sigma) for 24 hours. NO concentration in media was determined using the Griess reagent system (Promega). Cell viability was determined using WST-1 reagent (Roche).

A further data set deals with RAW264.7 macrophages. The experiment in a line: Cell viability, WST-1 reagent. Format: cell-based, mouse. As to conditions: RAW264.7 (20 ng/ml IFNγ). As for the experimental part: as §1, §2
On the technique in general: Formazan colour is commonly taken as a measure of viable cells.

With `CONC(=O)[C@]12CCC(C)(C)C[C@H]1[C@H]1C(=O)C=C3[C@@]4(C)C=C(C#N)C(=O)C(C)(C)[C@@H]4CC[C@@]3(C)[C@]1(C)CC2` [Compound 63166, reference compound], the Mortality in the data set on mice (3 mg/kg), in the data set with mice (10 mg/kg) and in the data set on mice (30 mg/kg) was 0/5 in each case.
In general, IC50 refers to the concentration that gives 50% inhibition. For `COC(=O)[C@]12CCC(C)(C)C[C@H]1[C@H]1C(=O)C[C@@H]3[C@@]4(C)Cc5cnoc5C(C)(C)[C@@H]4CC[C@@]3(C)[C@]1(C)CC2` [Compound 63195], the IC50 (in data set [1]; in the data set with RAW264.7 macrophages) was over 200 nM in each case.
As for `CC1(C)CC[C@]2(C(=O)NCC(F)(F)F)CC[C@]3(C)[C@H](C(=O)C[C@@H]4[C@@]5(C)Cc6cnoc6C(C)(C)[C@@H]5CC[C@]43C)[C@@H]2C1` [Compound 63223], the IC50 (in data set [1]; in the data set on RAW264.7 macrophages) was over 200 nM in each case.
With `CC1(C)CC[C@]2(C(=O)NCC(F)(F)F)CC[C@]3(C)[C@H](C(=O)C[C@@H]4[C@@]5(C)CC(C#N)C(=O)C(C)(C)[C@@H]5CC[C@]43C)[C@@H]2C1` (stereo partly drawn) [Compound 63227, (4aS,6aR,6bR,8aR,12aR,12bR,14aR,14bS)-11-cyano-2,2,6a,6b,9,9,12a-heptamethyl-10,14-dioxo-N-(2,2,2-trifluoroethyl)docosahydropicene-4a-carboxamide], the IC50 (in data set [1] (Mus musculus); in the data set on RAW264.7 macrophages (Mus musculus)) was over 200 nM each time.
`CC1(C)CC[C@]2(c3nn[nH]n3)CC[C@]3(C)[C@H](C(=O)C[C@@H]4[C@@]5(C)C=C(C#N)C(=O)C(C)(C)[C@@H]5CC[C@]43C)[C@@H]2C1` [Compound 63229, (4aR,6aR,6bR,8aS,12aS,12bR,14aR,14bR)-4,4,6a,6b,11,11,14b-heptamethyl-3,13-dioxo-8a-(2H-tetrazol-5-yl)-3,4,4a,5,6,6a,6b,7,8,8a,9,10,11,12,12a,12b,13,14,14a,14b-icosahydropicene-2-carbonitrile]: the IC50 (in data set [1] (Mus musculus); in the data set with RAW264.7 macrophages (Mus musculus)) was over 200 nM each time.
For `Cn1nnc([C@]23CCC(C)(C)C[C@H]2[C@H]2C(=O)C[C@@H]4[C@@]5(C)C=C(C#N)C(=O)C(C)(C)[C@@H]5CC[C@@]4(C)[C@]2(C)CC3)n1` [Compound 63230, (4aR,6aR,6bR,8aS,12aS,12bR,14aR,14bR)-4,4,6a,6b,11,11,14b-heptamethyl-8a-(2-methyl-2H-tetrazol-5-yl)-3,13-dioxo-3,4,4a,5,6,6a,6b,7,8,8a,9,10,11,12,12a,12b,13,14,14a,14b-icosahydropicene-2-carbonitrile], the results for the IC50 (in data set [1] (Mus musculus); in the data set on RAW264.7 macrophages (Mus musculus)) were about 50 nM and over 200 nM, respectively.
Regarding `COC(=O)[C@]12CCC(C)(C)C[C@H]1[C@H]1C(=O)CC3[C@@]4(C)CC(C#N)=C(O)C(C)(C)[C@@H]4CC[C@@]3(C)[C@]1(C)CC2` (stereo partly drawn) [Compound 63250, (4aS,6aR,6bR,8aR,12aR,14aR,14bS)-methyl 11-cyano-10-hydroxy-2,2,6a,6b,9,9,12a-heptamethyl-14-oxo-1,2,3,4,4a,5,6,6a,6b,7,8,8a,9,12,12a,12b,13,14,14a,14b-icosahydropicene-4a-carboxylate], the IC50 (in data set [1] (Mus musculus); in the data set on RAW264.7 macrophages (Mus musculus)) was over 200 nM throughout.
For the compound `CC1(C)CC[C@]2(C(=O)NCC(F)(F)F)CC[C@]3(C)[C@H]([C@H](O)C[C@@H]4[C@@]5(C)C=C(C#N)C(=O)C(C)(C)[C@@H]5CC[C@]43C)[C@@H]2C1` [Compound 63268], the IC50 (in data set [1]; in the data set on RAW264.7 macrophages) was over 200 nM in each case.
In the case of `Cc1nnc([C@]23CCC(C)(C)C[C@H]2[C@H]2C(=O)C[C@@H]4[C@@]5(C)C=C(C#N)C(=O)C(C)(C)[C@@H]5CC[C@@]4(C)[C@]2(C)CC3)s1` [Compound 63274, (4aR,6aR,6bR,8aS,12aS,12bR,14aR,14bR)-4,4,6a,6b,11,11,14b-heptamethyl-8a-(5-methyl-1,3,4-thiadiazol-2-yl)-3,13-dioxo-3,4,4a,5,6,6a,6b,7,8,8a,9,10,11,12,12a,12b,13,14,14a,14b-icosahydropicene-2-carbonitrile], the IC50 in data set [1] (Mus musculus) was about 70 nM; in the data set on RAW264.7 macrophages (Mus musculus), over 200 nM.
The corresponding values for `COC(=O)[C@]12CCC(C)(C)C[C@H]1C1OC(O)C[C@@H]3[C@@]4(C)C=C(C#N)C(=O)C(C)(C)[C@@H]4CC[C@@]3(C)[C@]1(C)CC2` (stereo partly drawn) [Compound 63289, (4aR,6aR,6bS,8aS,12aR,15aR,15bR)-methyl 2-cyano-14-hydroxy-4,4,6a,6b,11,11,15b-heptamethyl-3-oxo-3,4,4a,5,6,6a,6b,7,8,8a,9,10,11,12,12a,12b,14,15,15a,15b-icosahydrodinaphtho[1,2-b:2′,1′-d]oxepine-8a-carboxylate] are over 200 nM and over 200 nM.
Regarding `COC(=O)[C@]12CCC(C)(C)C[C@H]1[C@H]1C(=NO)C[C@@H]3[C@@]4(C)C=C(C#N)C(=O)C(C)(C)[C@@H]4CC[C@@]3(C)[C@]1(C)CC2` [Compound 63295, (4aS,6aR,6bR,8aR,12aR,12bR,14aR,14bS)-methyl 11-cyano-14-(hydroxyimino)-2,2,6a,6b,9,9,12a-heptamethyl-10-oxo-1,2,3,4,4a,5,6,6a,6b,7,8,8a,9,10,12a,12b,13,14,14a,14b-icosahydropicene-4a-carboxylate], the IC50 in data set [1] (Mus musculus) is about 20 nM; with RAW264.7 macrophages (Mus musculus) it was over 200 nM.
The corresponding values for `COC(=O)[C@]12CCC(C)(C)C[C@H]1[C@H]1NC(=O)C[C@@H]3[C@@]4(C)C=C(C#N)C(=O)C(C)(C)[C@@H]4CC[C@@]3(C)[C@]1(C)CC2` [Compound 63296, (4aR,6aR,6bS,8aS,12aR,12bR,15aR,15bR)-methyl 2-cyano-4,4,6a,6b,11,11,15b-heptamethyl-3,14-dioxo-4,4a,5,6,6a,6b,7,8,8a,9,10,11,12,12a,12b,13,14,15,15a,15b-icosahydro-3H-dinaphtho[1,2-b:2′,1′-d]azepine-8a-carboxylate] are about 200 nM and over 200 nM.
As for `CC(=O)[C@]12CCC(C)(C)C[C@H]1[C@H]1C(=O)C[C@@H]3[C@@]4(C)C=C(C#N)C(=O)C(C)(C)[C@@H]4CC[C@@]3(C)[C@]1(C)CC2` [Compound 63308, (4aR,6aR,6bR,8aS,12aS,12bR,14aR,14bR)-8a-acetyl-4,4,6a,6b,11,11,14b-heptamethyl-3,13-dioxo-3,4,4a,5,6,6a,6b,7,8,8a,9,10,11,12,12a,12b,13,14,14a,14b-icosahydropicene-2-carbonitrile], the figures for the IC50 (in data set [1] (Mus musculus); in the data set with RAW264.7 macrophages (Mus musculus)) were about 25 nM and over 200 nM, respectively.
For `CC1(C)CC[C@]2(C(=O)OCc3ccccc3)CC[C@]3(C)[C@H](C(=O)C[C@@H]4[C@@]5(C)C=C(C#N)C(=O)C(C)(C)[C@@H]5CC[C@]43C)[C@@H]2C1` [Compound 63323, (4aS,6aR,6bR,8aR,12aR,12bR,14aR,14bS)-benzyl 11-cyano-2,2,6a,6b,9,9,12a-heptamethyl-10,14-dioxo-1,2,3,4,4a,5,6,6a,6b,7,8,8a,9,10,12a,12b,13,14,14a,14b-icosahydropicene-4a-carboxylate], the IC50 in data set [1] (Mus musculus) is about 40 nM. The Mortality with mice (3 mg/kg), in the data set with mice (10 mg/kg) and with mice (30 mg/kg) was 0/5 throughout.
Consider `CN(C)C(=O)[C@]12CCC(C)(C)C[C@H]1[C@H]1C(=O)C=C3[C@@]4(C)C=C(C#N)C(=O)C(C)(C)[C@@H]4CC[C@@]3(C)[C@]1(C)CC2` [Compound 63324, reference compound], for which the Mortality in the data set on mice (3 mg/kg), in the data set with mice (10 mg/kg) and in the data set with mice (30 mg/kg) was 0/5 each time.
In the case of `CONC(=O)[C@]12CCC(C)(C)C[C@H]1[C@H]1C(=O)C[C@@H]3[C@@]4(C)C=C(C#N)C(=O)C(C)(C)[C@@H]4CC[C@@]3(C)[C@]1(C)CC2` [Compound 63325, (4aS,6aR,6bR,8aR,12aR,12bR,14aR,14bS)-11-cyano-N-methoxy-2,2,6a,6b,9,9,12a-heptamethyl-10,14-dioxo-1,2,3,4,4a,5,6,6a,6b,7,8,8a,9,10,12a,12b,13,14,14a,14b-icosahydropicene-4a-carboxamide], in data set [1] (Mus musculus), the IC50 was about 50 nM. Further, the Mortality with mice (3 mg/kg), with mice (10 mg/kg) and with mice (30 mg/kg) was 0/5 in each case.
Turning to `CN(C)C(=O)[C@]12CCC(C)(C)C[C@H]1[C@H]1C(=O)C[C@@H]3[C@@]4(C)C=C(C#N)C(=O)C(C)(C)[C@@H]4CC[C@@]3(C)[C@]1(C)CC2` [Compound 63326, (4aS,6aR,6bR,8aR,12aR,12bR,14aR,14bS)-11-cyano-N,N,2,2,6a,6b,9,9,12a-nonamethyl-10,14-dioxo-1,2,3,4,4a,5,6,6a,6b,7,8,8a,9,10,12a,12b,13,14,14a,14b-icosahydropicene-4a-carboxamide], in data set [1] (Mus musculus), the IC50 is about 50 nM. In addition, the Mortality in the data set with mice (3 mg/kg) is recorded as 0/5; with mice (10 mg/kg), 1/5; in the data set with mice (30 mg/kg) it was 0/5.
